Test results as given in patent publication US11149031B2, “Substituted N-(3-fluoropropyl)-pyrrolidine compounds, processes for their preparation and therapeutic uses thereof” (SANOFI, priority 2016, dated 2021).

Columns and labels:
ERα in MCF7 cells = ERα in MCF7 cells (Homo sapiens (Human), UniProt P03372); experiment: Test C: estrogen receptor degradation activity, ERα in cell western assay in MCF7 cells; format: cell-based; details: for DC50: 4 hours post compound addition, ERα in cell western, read-out: Degradation IC50; for % Degradation at 3 μM: 4 hours, relative to fulvestrant
Protocol: Test C: Estrogen Receptor Degradation Activity
Test C involves measuring the in vitro degradation activity of the compounds of the invention.
The measurements of the degradation activities were made using abreast cancer cell ERα in cell western assay as described hereunder.
MCF7 cells (ATCC) were seeded in 384 wells microplate (collagen coated) at concentration of >9990 cells/30 μL per well in red phenol free MEM alpha medium (invitrogen) containing 5% charcoal dextran striped FBS. The following day, 9 points serial 1:5 dilution of each compound were added to the cells in 2.5 μL at final concentrations ranging from 3-0.000018 μM or 0.1 μM for fulvestrant (using as positive control). At 4 hours post compounds addition the cells were fixed by adding 25 μL of formalin (final concentration 5% formalin containing 0.1% triton) for 10 minutes at room temperature and then washed twice with PBS. Then, 50 μL of LI-COR blocking buffer containing 0.1% Triton was added to plate for 30 minutes at room temperature. LI-COR blocking buffer was removed and cells were incubated overnight at cold room with 50 μL anti-ER rabbit monoclonal antibody (Thermo scientific MA1-39540) diluted at 1:>999 in LI-COR blocking buffer containing 0.1% tween-20. Wells which were treated with blocking but no antibody were used as background control. Wells were washed twice with PBS (0.1% tween-20) and incubated at 37° C. for 60 minutes in LI-COR (0.1% tween-20) containing goat anti-rabbit antibody Alexa 488 (1:>999) and Syto-64 a DNA dye (2 μM final concentration). Cells were then washed 3 times in PBS and scanned in ACUMEN explorer (TTP-Labtech). Integrated intensities in the green fluorescence and red fluorescence were measured to determine the levels of ERα and DNA respectively.

[1] = target: His6-ERα298-554 WT (ERα ligand-binding domain) (Homo sapiens (Human), UniProt P03372); experiment: Test A: biochemical antagonist activity, LanthaScreen TR-FRET ERα coactivator assay, WT; details: protocol with 3 nM estradiol; read-out: Antagonism WT IC50
Protocol: (§1) Test A: Biochemical Antagonist Activity on Wild Type (WT) and Mutants
(§2) Estrogen Receptors Test A involves measuring the in vitro antagonist activity of the compounds of the invention on estrogen receptors.
(§3) The measurements of the antagonist activities were made using an estrogen receptor coactivator assay as described hereunder.
(§4) Antagonistic potency of compounds was evaluated using LanthaScreen® TR-FRET ERα Coactivator Assay (ThermoFisher) with modifications. […] The assay works in a homogeneous mix-and-read format. In a typical experiment, a 4 μL mixture of 0.5 nM His6-ERα298-554, 0.5 nM Tb-labeled His6 antibody, 250 nM PGC1a peptide, and 3 nM estradiol (or 10 nM estradiol) in 100 mM potassium phosphate, pH 7.4, 0.01% Tween-20, 0.02% NaN3, 5 mM DTT, was added to 40 nL test compound in DMSO and incubated overnight at room temperature. The TR-FRET 520:495 nm emission ratio was calculated and used to determine the IC50 value from a dose response curve fit to the 4-parameter logistic equation.

[2] = target: His6-ERα298-554 Y537S mutant (ERα ligand-binding domain) (Homo sapiens (Human), UniProt P03372, Y537S); experiment: Test A: biochemical antagonist activity, LanthaScreen TR-FRET ERα coactivator assay, Y537S mutant; details: protocol with 3 nM estradiol; read-out: Antagonism Y537S IC50
Protocol: as §1, §2, §3, §4

[3] = target: His6-ERα298-554 D538G mutant (ERα ligand-binding domain) (Homo sapiens (Human), UniProt P03372, D538G); experiment: Test A: biochemical antagonist activity, LanthaScreen TR-FRET ERα coactivator assay, D538G mutant; details: protocol with 3 nM estradiol; read-out: Antagonism D538G IC50
Protocol: as §1, §2, §3, §4

Chain of His6-ERα298-554 D538G mutant (ERα ligand-binding domain) (P03372 298-554 D538G): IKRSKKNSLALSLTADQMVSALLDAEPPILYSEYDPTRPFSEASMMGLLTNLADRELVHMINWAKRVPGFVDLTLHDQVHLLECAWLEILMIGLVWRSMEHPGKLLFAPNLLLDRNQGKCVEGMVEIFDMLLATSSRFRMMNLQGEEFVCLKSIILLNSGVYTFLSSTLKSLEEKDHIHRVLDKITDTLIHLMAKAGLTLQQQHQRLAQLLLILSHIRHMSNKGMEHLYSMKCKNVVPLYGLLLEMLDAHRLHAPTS
Chain of His6-ERα298-554 WT (ERα ligand-binding domain) (P03372 298-554): as the sequence (P03372 298-554 D538G) above, with G241D counted along it
Chain of ERα in MCF7 cells (P03372 whole entry): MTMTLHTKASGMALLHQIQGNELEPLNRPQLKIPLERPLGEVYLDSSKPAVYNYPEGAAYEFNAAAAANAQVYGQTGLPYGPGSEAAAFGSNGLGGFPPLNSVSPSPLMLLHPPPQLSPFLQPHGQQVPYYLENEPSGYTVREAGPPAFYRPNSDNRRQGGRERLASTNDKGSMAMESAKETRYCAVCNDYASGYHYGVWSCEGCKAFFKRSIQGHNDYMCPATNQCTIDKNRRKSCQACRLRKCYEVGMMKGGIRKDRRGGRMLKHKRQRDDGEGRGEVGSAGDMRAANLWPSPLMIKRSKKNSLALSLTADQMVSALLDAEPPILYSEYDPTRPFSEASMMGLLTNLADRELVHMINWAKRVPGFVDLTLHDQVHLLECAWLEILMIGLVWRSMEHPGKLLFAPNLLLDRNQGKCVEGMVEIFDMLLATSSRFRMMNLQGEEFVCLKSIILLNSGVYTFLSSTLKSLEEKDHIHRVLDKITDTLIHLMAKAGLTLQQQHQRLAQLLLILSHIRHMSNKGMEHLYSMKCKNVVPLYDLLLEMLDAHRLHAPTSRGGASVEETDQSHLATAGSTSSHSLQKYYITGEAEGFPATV
Chain of His6-ERα298-554 Y537S mutant (ERα ligand-binding domain) (P03372 298-554 Y537S): as the sequence (P03372 298-554 D538G) above, with Y240S, G241D counted along it

Row | Structure (SMILES) | DC50 (ERα in MCF7 cells) [µM] | % Degradation at 3 μM (ERα in MCF7 cells) [%] | IC50 [1] [µM] | IC50 [2] [µM] | IC50 [3] [µM]
1 | Oc1ccc2c(c1)C(c1ccc(O[C@H]3CCN(CCCF)C3)cc1)=C(c1ccncc1F)CC2 [Example 1, 8-[4-[(3S)-1-(3-fluoropropyl)pyrrolidin-3-yl]oxyphenyl]-7-(3-fluoro-4-pyridyl)-5,6-dihydronaphthalen-2-ol] | 0.034 | 84 | 0.46 |  | 
2 | Oc1ccc2c(c1)C(c1ccc(O[C@H]3CCN(CCCF)C3)cc1)=C(C1=CCOCC1)CC2 [Example 3, 7-(3,6-dihydro-2H-pyran-4-yl)-8-[4-[(3S)-1-(3-fluoropropyl)pyrrolidin-3-yl]oxyphenyl]-5,6-dihydronaphthalen-2-ol] | 0.085 | 80 | 1.51 |  | 
3 | Oc1ccc2c(c1)C(c1ccc(O[C@H]3CCN(CCCF)C3)cc1)=C(c1ccc(F)cc1Cl)CC2 [Example 4, 7-(2-chloro-4-fluoro-phenyl)-8-[4-[(3S)-1-(3-fluoropropyl)pyrrolidin-3-yl]oxyphenyl]-5,6-dihydronaphthalen-2-ol] | 0.012 | 87 | 0.284 |  | 
4 | Oc1ccc2c(c1)C(c1ccc(O[C@H]3CCN(CCCF)C3)cc1)=C(c1ccc3[nH]ccc3c1)CC2 [Example 5, 8-[4-[(3S)-1-(3-fluoropropyl)pyrrolidin-3-yl]oxyphenyl]-7-(1H-indol-5-yl)-5,6-dihydronaphthalen-2-ol] | 0.0005 | 81 | 0.028 | 0.072 | 0.209
5 | Oc1ccc(C2=C(c3ccc(O[C@H]4CCN(CCCF)C4)cc3)c3cc(O)ccc3CC2)c(F)c1 [Example 6, 7-(2-fluoro-4-hydroxy-phenyl)-8-[4-[(3S)-1-(3-fluoropropyl)pyrrolidin-3-yl]oxyphenyl]-5,6-dihydronaphthalen-2-ol] | 0.0002 | 84 | 0.002 | 0.008 | 0.013
6 | Oc1ccc2c(c1)SCC(c1ccc3[nH]ccc3c1)=C2c1ccc(O[C@H]2CCN(CCCF)C2)cc1 [Example 19, 4-[4-[(3S)-1-(3-fluoropropyl)pyrrolidin-3-yl]oxyphenyl]-3-(1H-indol-5-yl)-2H-thiochromen-7-ol] | 0.003 | 78 | 0.007 | 0.011 | 0.023
7 | Oc1ccc2c(c1)SCC(c1ccc3c(c1)CCN3)=C2c1ccc(O[C@H]2CCN(CCCF)C2)cc1 [Example 20, 4-[4-[(3S)-1-(3-fluoropropyl)pyrrolidin-3-yl]oxyphenyl]-3-indolin-5-yl-2H-thiochromen-7-ol] | 0.003 | 86 | 0.015 | 0.021 | 0.046
8 | Oc1ccc2c(c1)SCC(c1ccc(Cl)cc1Cl)=C2c1ccc(O[C@H]2CCN(CCCF)C2)cc1 [Example 21, 3-(2,4-dichlorophenyl)-4-[4-[(3S)-1-(3-fluoropropyl)pyrrolidin-3-yl]oxyphenyl]-2H-thiochromen-7-ol] | 0.003 | 92 | 0.009 | 0.019 | 0.047
9 | Oc1ccc2c(c1)SCC(c1ccc(F)cc1Cl)=C2c1ccc(O[C@H]2CCN(CCCF)C2)cc1 [Example 22, 3-(2-chloro-4-fluoro-phenyl)-4-[4-[(3S)-1-(3-fluoropropyl)pyrrolidin-3-yl]oxyphenyl]-2H-thiochromen-7-ol] | 0.001 | 95 | 0.006 | 0.009 | 0.027
10 | Oc1cccc(C2=C(c3ccc(O[C@H]4CCN(CCCF)C4)cc3)c3ccc(O)cc3OCC2)c1 [Example 91, 5-[4-[(3S)-1-(3-fluoropropyl)pyrrolidin-3-yl]oxyphenyl]-4-(3-hydroxyphenyl)-2,3-dihydro-1-benzoxepin-8-ol] | 0.0004 | 91 | 0.002 | 0.006 | 0.01
11 | Oc1ccc2c(c1)OCCC(c1ccc(F)cc1Cl)=C2c1ccc(O[C@H]2CCN(CCCF)C2)cc1 [Example 92, 4-(2-chloro-4-fluoro-phenyl)-5-[4-[(3S)-1-(3-fluoropropyl)pyrrolidin-3-yl]oxyphenyl]-2,3-dihydro-1-benzoxepin-8-ol] | 0.0005 | 96 | 0.007 | 0.022 | 0.059
12 | Oc1ccc2c(c1)OCCC(c1ccc3[nH]ccc3c1)=C2c1ccc(O[C@H]2CCN(CCCF)C2)cc1 [Example 93, 5-[4-[(3S)-1-(3-fluoropropyl)pyrrolidin-3-yl]oxyphenyl]-4-(1H-indol-5-yl)-2,3-dihydro-1-benzoxepin-8-ol] | 0.0004 | 87 | 0.008 | 0.026 | 0.059
13 | Oc1ccc(C2=C(c3ccc(O[C@H]4CCN(CCCF)C4)cc3)c3ccc(O)cc3OCC2)c(F)c1 [Example 94, 4-(2-fluoro-4-hydroxy-phenyl)-5-[4-[(3S)-1-(3-fluoropropyl)pyrrolidin-3-yl]oxyphenyl]-2,3-dihydro-1-benzoxepin-8-ol] | 0.0002 | 87 | 0.002 | 0.006 | 0.01
14 | Oc1ccc2c(c1)OCCC(c1cccc(F)c1Cl)=C2c1ccc(O[C@H]2CCN(CCCF)C2)cc1 [Example 95, 4-(2-chloro-3-fluoro-phenyl)-5-[4-[(3S)-1-(3-fluoropropyl)pyrrolidin-3-yl]oxyphenyl]-2,3-dihydro-1-benzoxepin-8-ol] | 0.0002 | 93 | 0.006 | 0.02 | 0.043
15 | Oc1ccc2c(c1)OCCC(c1ccc(Cl)c(F)c1)=C2c1ccc(O[C@H]2CCN(CCCF)C2)cc1 [Example 97, 4-(4-chloro-3-fluoro-phenyl)-5-[4-[(3S)-1-(3-fluoropropyl)pyrrolidin-3-yl]oxyphenyl]-2,3-dihydro-1-benzoxepin-8-ol] | 0.0002 | 94 | 0.05 | 0.018 | 0.358
16 | Cc1cc(C2=C(c3ccc(O[C@H]4CCN(CCCF)C4)cc3)c3ccc(O)cc3OCC2)ccc1Cl [Example 99, 4-(4-chloro-3-methyl-phenyl)-5-[4-[(3S)-1-(3-fluoropropyl)pyrrolidin-3-yl]oxyphenyl]-2,3-dihydro-1-benzoxepin-8-ol] | 0.0007 | 89 | 0.005 | 0.025 | 0.036
17 | Oc1ccc2c(c1)C(c1ccc(O[C@H]3CCN(CCCF)C3)cc1)=C(c1ccc(Cl)cc1Cl)CCS2 [Example 182, 4-(2,4-dichlorophenyl)-5-[4-[(3S)-1-(3-fluoropropyl)pyrrolidin-3-yl]oxyphenyl]-2,3-dihydro-1-benzothiepin-7-ol] | 0.005 | 79 |  |  | 
18 | O=S1(=O)CCC(c2ccc(Cl)cc2Cl)=C(c2ccc(O[C@H]3CCN(CCCF)C3)cc2)c2ccc(O)cc21 [Example 231, 4-(2,4-dichlorophenyl)-5-[4-[(3S)-1-(3-fluoropropyl)pyrrolidin-3-yl]oxyphenyl]-1,1-dioxo-2,3-dihydro-1λ^6-benzothiepin-8-ol] | 0.002 | 96 |  |  | 
